Data from patent US5750146A, “Translucent collagen formulations with a cytotoxic drug” (Matrix Pharmaceutical, Inc., priority 1995, dated 1998).

Assays:
Type in all cases: physicochemical
collagen = assay: Differential Scanning Calorimetry (DSC) scan of collagen transition temperature; conditions: for compatibility of cytotoxic drug with collagen: judged from collagen transition temperature
[1] = optical absorbance at 410 nm (optical opacity) of aqueous collagen compositions, 1 mm pathlength; conditions: 0.25M additive, 6.5 weight percent collagen, pH 9.1, 2° to 8° C., 10 minutes
Experimental: Aliquots (0.5 mL) of each of the compositions were placed in microcuvet having a 1 mm pathlength at different temperatures for 10 minutes wherein the first aliquot was stored at about 12° C, the second aliquot was stored at about 8° C. and the third aliquot was stored at about 4° C. The optical opacity of each sample was then measured at 30 second intervals by determining the absorbance of light (410 nm) through the microcuvet. Lower absorbance in each case corresponds to greater optical clarity at 410 nm.
Three identical aqueous collagen compositions were prepared as above with the exception that the amount of fluorouracil incorporated into the compositions were varied to be 16.65 mg/mL, 22.2 mg/mL and 33.3 mg/mL respectively. The resulting compositions were stored at 4° C. as aliquots (0.5 mL) in microcuvets having a 1 mm pathlength for 10 minutes and the optical opacity of each sample was measured at 30 second intervals by determining the absorbance of light (410 nm) through the microcuvet. Lower absorbance in each case corresponds to greater optical clarity at 410 nm.
Both compositions were then stored at from about 2° to 8° C. as aliquots (0.5 mL) in microcuvets having a 1 mm pathlength for 10 minutes and the optical opacity of each sample was measured at 15 second intervals by determining the absorbance of light (410 nm) through the microcuvet. […]

[2] = optical appearance of aqueous collagen compositions on storage
Experimental: Mixing was conducted by repeated transfers between two syringes connected by a mixing adapter. […] The results of these scans are illustrated in FIG. 5 and 6, respectively.
A second study was conducted to determine the amount of fluorouracil required to effect clarification on an opaque aqueous collagen composition. Specifically, aqueous collagen compositions were formulated to contain collagen (21.7 mg/mL), 0.033M phosphate buffer and varying amounts of fluorouracil. Each composition was then stored at about 2° C. to 8° C. for 17 days and the optical appearance of the composition measured periodically.
Specifically, in this example, the concentration of methotrexate in the collagen composition was varied and the collagen compositions were stored for 1 day and 3 days at either at 2° C. to 8° C. or at room temperature. The results at 3 days were the same as those found after 1 day and, accordingly, Table III below sets forth only the results from day 1.
A second study was conducted by preparing collagen compositions having 0.033M potassium phosphate buffer and […]. The pH of the solution was adjusted by the addition of HCl or NaOH as necessary to modify the pHs of the compositions to approximately 5, 7, 8 and 9. The compositions were stored at either room temperature or at 2-8° C. The optical appearance of these compositions was evaluated at 1 and 11 days after storage.

Structure (SMILES)	cross-linking to collagen (increase in transition temperature over time) (collagen; room temperature, up to 8 hours)	effect of additive on clarifying the collagen composition (FIG. 11) [1]	clarifying effect on opaque collagen composition ([2]; fluorouracil at 20 mg/mL, 2° C. to 8° C.)	compatibility of cytotoxic drug with collagen (collagen)	effect of refrigeration and high concentration on optical clarity ([2]; refrigeration, high concentrations of methotrexate)
N.N.[Cl][Pt][Cl] [cisplatin, cis-diamino dichlororplatinum (II)]	cross-linking (i.e., covalent bonding) of the cisplatin to the collagen				
O=c1[nH]cc(F)c(=O)[nH]1 [fluorouracil, 5-fluoro-2,4-(1H, 3H)pyrimidinedione]		only fluorouracil has any significant effect on clarifying the collagen composition	some clarifying affect on the opaque collagen composition	compatible cytotoxic drug	
CN(Cc1cnc2nc(N)nc(N)c2n1)c1ccc(C(=O)N[C@@H](CCC(=O)O)C(=O)O)cc1 [methotrexate]				compatible cytotoxic drug	both refrigeration and high concentrations of methotrexate are effective in effecting optical clarity
